# Target: Recombinant human LTC4 synthase (Homo sapiens (Human), UniProt Q16873)
# Assay: In vitro hLTC4 synthase enzyme assay (Test A)
# Assay type: biochemical
# Conditions: Test A (Examples 1-61); substrate LTA4, LTC4 detected by HTRF; median of at least two determinations
# Method: In Vitro hLTC4 Synthase Enzyme Assay (Test A)
# Recombinant human LTC4 synthase is expressed in Piccia pastoralis and the purified enzyme is dissolved in 25 mM tris-buffer pH 7.8 supplemented with 0.1 mM glutathione (GSH) and stored at −80° C.
# The buffer is used as background. Runs are performed in duplicates.
# The reaction is stopped after 1 min by addition of double the reaction volume of a stop solution (MeOH:H2O:acetic acid 70:30:1).
# After 15 fold dilution in PBS, LTC4 formation is detected with LTC4 HTRF kit (Cisbio, cat. No 64LC4PEC) and a fluorescence reader. Typically 6 μL of sample is mixed with 3 μL of each of the HTRF reagents d2 and k and analyzed as described in the kit manual.
# Sequence of Recombinant human LTC4 synthase (Q16873 whole entry): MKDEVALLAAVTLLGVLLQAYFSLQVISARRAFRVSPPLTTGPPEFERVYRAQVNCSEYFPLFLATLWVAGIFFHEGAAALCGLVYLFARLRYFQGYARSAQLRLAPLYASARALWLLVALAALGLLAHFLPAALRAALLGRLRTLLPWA
row,IC50 [µM],Structure (SMILES)
1,0.277,"COc1cc(N(CC2CC2)c2ccc(Cl)cc2)cnc1C(=O)C1CC1C(=O)NS(=O)(=O)c1ccc(OC(F)(F)F)cc1 (stereo not drawn) [Example 42, 2-(5-((4-Chlorophenyl)(cyclopropylmethyl)amino)-3-methoxypicolinoyl)-N-((4-(trifluoromethoxy)phenyl)-sulfonyl)cyclopropanecarboxamide]"
2,0.019,"COc1cc(N(CC2CC2)c2ccc(C(F)(F)F)c3ccccc23)cnc1C(=O)C1CC1C(=O)O (stereo not drawn) [Example 34, 2-(5-((Cyclopropylmethyl)(4-(trifluoromethyl)naphthalen-1-yl)amino)-3-methoxypicolinoyl)cyclopropanecarboxylic acid]"
3,0.026,"COc1cc(N(CC2CC2)c2ccc(F)c3ccccc23)ccc1C(=O)C1CC1C(=O)O (stereo not drawn) [Example 46, 2-(4-((Cyclopropylmethyl)(4-fluoronaphthalen-1-yl)amino)-2-methoxybenzoyl)cyclopropanecarboxylic acid]"
4,0.034,"COc1cc(N(Cc2ccc3ccccc3c2)CC2CC2)cnc1C(=O)C1CC1C(=O)O (stereo not drawn) [Example 17, 2-(5-((Cyclopropylmethyl)(naphthalen-2-ylmethyl)amino)-3-methoxypicolinoyl)cyclopropanecarboxylic acid]"
5,0.356,"COc1cc(N(CC2CC2)c2ccc(Cl)cc2)cnc1C(=O)C1CC1C(=O)NS(=O)(=O)C1CC1 (stereo not drawn) [Example 40, 2-(5-((4-Chlorophenyl)(cyclopropylmethyl)amino)-3-methoxypicolinoyl)-N-(cyclopropylsulfonyl)-cyclopropanecarboxamide]"
6,0.229,"COc1cc(N(CC2CC2)c2ccc(C(F)(F)F)c3cccnc23)cnc1C(=O)C1CC1C(=O)O (stereo not drawn) [Example 35, 2-(5-((Cyclopropylmethyl)(5-(trifluoromethyl)quinolin-8-yl)amino)-3-methoxypicolinoyl)cyclopropanecarboxylic acid]"
7,0.019,"COc1nc(C(=O)C2CC2C(=O)O)ncc1N(CC1CC1)c1ccc(F)c2ccccc12 (stereo not drawn) [Example 58, 2-(5-((Cyclopropylmethyl)(4-fluoronaphthalen-1-yl)amino)-4-methoxypyrimidine-2-carbonyl)cyclopropanecarboxylic acid]"
8,0.088,"COc1cc(N(Cc2cccc(C(F)(F)F)c2C)CC2CC2)cnc1C(=O)C1CC1C(=O)O (stereo not drawn) [Example 20, 2-(5-((Cyclopropylmethyl)(2-methyl-3-(trifluoromethyl)benzyl)amino)-3-methoxypicolinoyl)cyclopropanecarboxylic acid]"
9,0.046,"COc1cc(N(CC2CC2)c2cccc3ccccc23)ccc1C(=O)C1CC1C(=O)O (stereo not drawn) [Example 48, 2-(4-((Cyclopropylmethyl)(naphthalen-1-yl)amino)-2-methoxybenzoyl)cyclopropanecarboxylic acid]"
10,0.152,"COc1cc(N(Cc2ccc(F)c(Cl)c2F)CC2CC2)cnc1C(=O)C1CC1C(=O)O (stereo not drawn) [Example 30, 2-(5-((3-Chloro-2,4-difluorobenzyl)(cyclopropylmethyl)amino)-3-methoxypicolinoyl)cyclopropanecarboxylic acid]"
11,0.185,"COc1cc(N(Cc2ccc(C)c(F)c2F)CC2CC2)cnc1C(=O)C1CC1C(=O)O (stereo not drawn) [Example 33, 2-(5-((Cyclopropylmethyl)(2,3-difluoro-4-methylbenzyl)amino)-3-methoxypicolinoyl)cyclopropanecarboxylic acid]"
12,0.035,"COc1cc(N(CC2CC2)c2ccc(C)c3ccccc23)cnc1C(=O)C1CC1C(=O)O (stereo not drawn) [Example 11, 2-(5-((Cyclopropylmethyl)(4-methylnaphthalen-1-yl)amino)-3-methoxypicolinoyl)cyclopropanecarboxylic acid]"
13,0.018,"COc1nc(C(=O)C2CC2C(=O)O)ncc1N(CC1CC1)c1ccc(C)c2ccccc12 (stereo not drawn) [Example 59, 2-(5-((Cyclopropylmethyl)(4-methylnaphthalen-1-yl)amino)-4-methoxypyrimidine-2-carbonyl)cyclopropanecarboxylic acid]"
14,0.074,"COc1cc(N(CC2CC2)c2ccc(Cl)cc2)cnc1C(=O)C1CC1C(=O)NS(=O)(=O)c1ccccc1F (stereo not drawn) [Example 43, 2-(5-((4-Chlorophenyl)(cyclopropylmethyl)amino)-3-methoxypicolinoyl)-N-((2-fluorophenyl)sulfonyl)-cyclopropanecarboxamide]"
15,0.061,"COc1cc(N(CC2CC2)c2ccc(Cl)c3ccccc23)ccc1C(=O)C1CC1C(=O)O (stereo not drawn) [Example 47, 2-(4-((4-Chloronaphthalen-1-yl)(cyclopropylmethyl)amino)-2-methoxybenzoyl)cyclopropanecarboxylic acid]"
16,0.37,"COc1cc(N(Cc2ccc(F)c(F)c2F)CC2CC2)cnc1C(=O)C1CC1C(=O)O (stereo not drawn) [Example 29, 2-(5-((Cyclopropylmethyl)(2,3,4-trifluorobenzyl)amino)-3-methoxypicolinoyl)cyclopropanecarboxylic acid]"

row,IC50 [µM],Structure (SMILES)
1,0.039,"COc1cc(N(Cc2cccc(Cl)c2)CC2CC2)cnc1C(=O)C1CC1C(=O)O (stereo not drawn) [Example 18, 2-(5-((3-Chlorobenzyl)(cyclopropylmethyl)amino)-3-methoxypicolinoyl)cyclopropanecarboxylic acid]"
2,0.105,"COc1cc(N(Cc2ccc(F)cc2)CC2CC2)cnc1C(=O)C1CC1C(=O)O (stereo not drawn) [Example 19, 2-(5-((Cyclopropylmethyl)(4-fluorobenzyl)amino)-3-methoxypicolinoyl)cyclopropanecarboxylic acid]"
3,0.025,"COc1cc(N(CC2CC2)c2cccc3c(C(F)(F)F)cccc23)cnc1C(=O)C1CC1C(=O)O (stereo not drawn) [Example 37, 2-(5-((Cyclopropylmethyl)(5-(trifluoromethyl)naphthalen-1-yl)amino)-3-methoxypicolinoyl)cyclopropanecarboxylic acid]"
4,0.424,"O=C(O)C1CC1C(=O)c1ccc(N(CC2CC2)c2ccc(Cl)cc2)cn1 (stereo not drawn) [Example 54, 2-(5-((4-Chlorophenyl)(cyclopropylmethyl)amino)picolinoyl)cyclopropanecarboxylic acid]"
5,0.067,"COc1cc(N(Cc2cccc(C)c2C)CC2CC2)cnc1C(=O)C1CC1C(=O)O (stereo not drawn) [Example 28, 2-(5-((Cyclopropylmethyl)(2,3-dimethylbenzyl)amino)-3-methoxypicolinoyl)cyclopropanecarboxylic acid]"
6,0.068,"COc1cc(N(Cc2ccc(Cl)cc2)CC2CC2)ccc1C(=O)C1CC1C(=O)O (stereo not drawn) [Example 51, 2-(4-((4-Chlorobenzyl)(cyclopropylmethyl)amino)-2-methoxybenzoyl)cyclopropanecarboxylic acid]"
7,0.017,"COc1nc(C(=O)C2CC2C(=O)O)ncc1N(CC1CC1)c1ccc(Cl)c2ccccc12 (stereo not drawn) [Example 56, 2-(5-((4-Chloronaphthalen-1-yl)(cyclopropylmethyl)amino)-4-methoxypyrimidine-2-carbonyl)cyclopropanecarboxylic acid]"
8,0.038,"COc1cc(N(CC2(C)CC2)c2ccc(Cl)cc2)cnc1C(=O)C1CC1C(=O)O (stereo not drawn) [Example 5, 2-(5-((4-Chlorophenyl)((1-methylcyclopropyl)methyl)amino)-3-methoxypicolinoyl)cyclopropanecarboxylic acid]"
9,0.034,"COc1cc(N(Cc2ccc(Cl)cc2)CC2CC2)cnc1C(=O)C1CC1C(=O)O (stereo not drawn) [Example 13, 2-(5-((4-Chlorobenzyl)(cyclopropylmethyl)amino)-3-methoxypicolinoyl)cyclopropanecarboxylic acid]"
10,0.047,"COc1cc(N(CC2(C)CC2)c2ccc3c(c2)CCC3)cnc1C(=O)C1CC1C(=O)O (stereo not drawn) [Example 6, 2-(5-((2,3-Dihydro-1H-inden-5-yl)((1-methylcyclopropyl)methyl)amino)-3-methoxypicolinoyl)cyclopropanecarboxylic acid]"
11,0.028,"COc1cc(N(CC2CC2)c2ccc3ccccc3c2)cnc1C(=O)C1CC1C(=O)O (stereo not drawn) [Example 12, 2-(5-((Cyclopropylmethyl)(naphthalen-2-yl)amino)-3-methoxypicolinoyl)cyclopropanecarboxylic acid]"
12,0.359,"COc1cc(N(CC2CC2)c2ccc(C)c3ncccc23)ccc1C(=O)C1CC1C(=O)O (stereo not drawn) [Example 52, 2-(4-((Cyclopropylmethyl)(8-methylquinolin-5-yl)amino)-2-methoxybenzoyl)cyclopropanecarboxylic acid]"
13,0.263,"COCC1(CN(c2ccc(Cl)cc2)c2cnc(C(=O)C3CC3C(=O)O)c(OC)c2)CC1 (stereo not drawn) [Example 4, 2-(5-((4-Chlorophenyl)((1-(methoxymethyl)cyclopropyl)methyl)amino)-3-methoxypicolinoyl)cyclopropanecarboxylic acid]"
14,0.065,"COc1cc(N(CC2CC2)c2ccc(Cl)cc2)ccc1C(=O)C1CC1C(=O)O (stereo not drawn) [Example 49, 2-(4-((4-Chlorophenyl)(cyclopropylmethyl)amino)-2-methoxybenzoyl)cyclopropanecarboxylic acid]"
15,0.112,"COc1cc(N(Cc2cccc(C(F)(F)F)c2Cl)CC2CC2)cnc1C(=O)C1CC1C(=O)O (stereo not drawn) [Example 22, 2-(5-((2-Chloro-3-(trifluoromethyl)benzyl)(cyclopropylmethyl)amino)-3-methoxypicolinoyl)cyclopropanecarboxylic acid]"

row,Structure (SMILES),IC50 [µM]
1,"COc1cc(N(CC2CC2)c2ccc3c4c(cccc24)CC3)cnc1C(=O)C1CC1C(=O)O (stereo not drawn) [Example 36, 2-(5-((Cyclopropylmethyl)(1,2-dihydroacenaphthylen-5-yl)amino)-3-methoxypicolinoyl)cyclopropanecarboxylic acid]",0.009
2,"COc1cc(N(CC2(C(F)(F)F)CC2)c2ccc(Cl)cc2)cnc1C(=O)C1CC1C(=O)O (stereo not drawn) [Example 3, 2-(5-((4-Chlorophenyl)((1-(trifluoromethyl)cyclopropyl)methyl)amino)-3-methoxypicolinoyl)cyclopropanecarboxylic acid]",0.149

# From patent US20160326143A1, “COMPOUNDS AND USES” (AstraZeneca AB, priority 2015, published 2016)
